Source: patent US20140072573A1, “METHOD OF TREATING RHEUMATOID ARTHRITIS” (Institut National de la Sante et de la Recherche Medicale …, priority 2012, published 2014)
“Also recorded” adds a separate entry of the source.

How the values were obtained:
Assay type in all cases: cell-based, human
[1] = system: HUVECs; assay: Cell viability of treated HUVECs
[2] = system: VE-cadherin; assay: VE-cadherin cytoplasmic fragment (VE-cyto) and 125 kDa full length protein in HUVEC extracts, western blot; conditions: for effect on TNFα-induced VE-cyto generation: L685 present
Experimental: (§1) Cell culture, extraction and immunoprecipitation: Endothelial cells were obtained from human umbilical vein (HUVECs) and grown to reach confluence in M199 medium supplemented with 10% fetal bovine serum (FCS), 2% Low Serum Growth Supplement LSGS (Cascade Biologics, USA) as previously described (Garnier-Raveaud et al., 2001). The 80% confluent HUVECs (passages 2 or 4) were used for most experiments. Confluent cells in 60 mm dishes were serum-starved in 1% fetal calf serum in M 199 for 24 h prior to testing. Before TNFα stimulation the cells were serum-starved for 2 hours, and then pre-treated for 15 min with sodium pervanadate (10 μM) and/or inhibitors as mentioned in text and figure legends. HUVECs were then stimulated with different concentrations of TNFα for various lengths of time as indicated. Otherwise, in most parts of this study, precisely in inhibition experiments TNFα was used at high concentration (i.e 100 ng/mL). As the inhibitors were diluted in dimethyl-sulfoxide (DMSO), control cells were systematically treated with DMSO 0.1% in any inhibition experiment.
(§2) Cells stimulation was stopped by medium collection and addition of 500 μl of ice-cold buffer A. The cells were harvested, homogenized and sonicated for 20 seconds. Cell lysates were collected after centrifugation for 15 min at 40° C. at 14,000 g. The protein concentration was measured using the micro-bicinchoninic acid protein assay and cell lysates were stored at −80° C. before use.
(§3) Western blotting: Proteins were resolved by SDS-PAGE and transferred to nitrocellulose.

[3] = system: VE-cadherin; assay: VE-cadherin extracellular fragment (VE-90) release in HUVEC conditioned media, western blot; conditions: for effect on TNFα-induced VE-90 release: 15 min pre-treatment, TNFα 100 ng/ml 45 min
Experimental: as §1
For conditioned medium analysis, the medium was collected and centrifuged for 15 minutes at 14,000 g at 4° C. The resulting supernatant was collected and proteins were concentrated by trichloro acetic acid precipitation (10%) overnight. After centrifugation at 14,000 g for 30 min, the pellet was re-suspended in Tris 50 mM (pH 11) and analyzed by SDS-PAGE and Western blotting.
as §3

[4] = system: VE-cadherin; assay: VE-cadherin tyrosine phosphorylation in HUVEC lysates, immunoprecipitation and phosphotyrosine western blot; conditions: 50 μM, TNFα 100 ng/ml
Experimental: as §1
as §2, with “Cell lysates were collected after centrifugation for 15 min at 40° C. at 14,000 g.” left out, “use. […]” for “use.”

## CC(C)(C)n1nc(-c2ccc(Cl)cc2)c2c(N)ncnc21 [PP2]
[1]; 10 μM
  cell viability: without affecting cell viability
[2]; 10 μM pre-treatment
  effect on TNFα-induced VE-cyto generation: strongly impaired
[3]; 10 μM
  effect on TNFα-induced VE-90 release: strongly decreased

## CNC(=O)[C@H](Cc1c[nH]c2ccccc12)NC(=O)[C@@H](CC(=O)NO)CC(C)C [GM6001]
[1]; 10 μM
  cell viability: without affecting cell viability
[2]; 10 μM pre-treatment
  effect on TNFα-induced VE-cyto generation: almost completely abrogated
[3]; 10 μM
  effect on TNFα-induced VE-90 release: drastically decreased

## TNFα
[2]; HUVEC extracts, γ-secretase inhibitor L685 present, TNFα 100 ng/ml
  appearance of VE-cyto upon TNFα challenge: clearly detected
[3]; HUVECs, TNFα 0 up to 10 ng/ml, 45 min
  VE-90 release versus TNFα concentration: increased in a dose-dependent manner; also recorded: dose-dependent release
[3]; HUVECs, TNFα 100 ng/ml
  time of TNFα stimulation after which VE-90 was detected: 10 min
[3]; HUVECs, TNFα 100 ng/ml, 5 to 60 min
  VE-90 release in conditioned media over time: time-dependent release; also recorded: increased in a time-dependent manner up to 60 min
[3]; HUVECs, dose-response 0 up to 10 ng/ml, 45 min
  low TNFα concentration at which VE-90 release was early detected: 0.5 ng/mL

## O=c1c(-c2ccc(O)cc2)coc2cc(O)cc(O)c12 [genistein]
[1]; 50 μM
  cell viability: without affecting cell viability
[2]; 50 μM pre-treatment
  effect on TNFα-induced VE-cyto generation: strongly impaired
[2]; both conditions (pervanadate pre-treated or not), TNFα
  effect on VE-cyto generation with or without pervanadate pre-treatment: still decreased
[4]
  effect on TNFα-induced VE-cadherin tyrosine phosphorylation: inhibited
[3]; 50 μM
  effect on TNFα-induced VE-90 release: strongly decreased

## sodium pervanadate
[2]; pervanadate pre-treated versus non pre-treated HUVECs
  effect on VE-cyto generation upon cytokine treatment: tremendous increase
